# Literature values in patent US20140255503A1, “PHARMACEUTICAL COMPOSITION OF OMEPRAZOLE” (LABORATORIOS DEL DR. ESTEVE, S.A., priority 2011, published 2014).
# What was measured:
# [1] = not given; remark: listed apart in the source
compound,measurement,setting,value
"COc1ccc2[nH]c([S+]([O-])Cc3ncc(C)c(OC)c3C)nc2c1 (stereo not shown) [Omeprazole, 5-methoxy-2-(4-methoxy-3,5-dimethylpyridin-2-ylmethylsulfinyl)-1H-benzimidazole]",Stability in acid media,acid media,rapidly degraded
same,Stability under alkaline conditions,alkaline conditions,acceptable stability
same,Solubility in acetone,[1]; acetone,slightly soluble
same,Solubility in ethanol,[1]; ethanol,freely soluble
same,Solubility in isopropanol,[1]; isopropanol,slightly soluble
same,Solubility in methanol,[1]; methanol,freely soluble
same,Solubility in water,[1]; water,very slightly soluble
